How the values were obtained:
[1] = test system: HeLa-MaTu-ADR, multidrug-resistant human cervical carcinoma cells; experiment: Proliferation assay, HeLa-MaTu-ADR (crystal violet); format: cell-based; conditions: 4 days, read-out: Inhibition of HeLa-MaTu-ADR cell proliferation IC50
Method: (§1) Cultivated tumour cells (HeLa, human cervical tumour cells, ATCC CCL-2; NCI-H460, human non-small cell lung carcinoma cells, ATCC HTB-177; A2780, human ovarian carcinoma cells, ECACC #93112519; DU 145, hormone-independent human prostate carcinoma cells, ATCC HTB-81; HeLa-MaTu-ADR, multidrug-resistant human cervical carcinoma cells, EPO-GmbH Berlin; Caco-2, human colorectal carcinoma cells, ATCC HTB-37; B16F10, mouse melanoma cells, ATCC CRL-6475) were plated at a density of 5,000 cells/well (DU145, HeLa-MaTu-ADR), 3,000 cells/well (NCI-H460, HeLa), 2,500 cells/well (A2780), 1,500 cells/well (Caco-2), or 1,000 cells/well (B16F10) in a 96-well multititer plate in 200 μL of their respective growth medium supplemented 10% fetal calf serum. After 24 hours, the cells of one plate (zero-point plate) were stained with crystal violet (see below), while the medium of the other plates was replaced by fresh culture medium (200 μl), to which the test substances were added in various concentrations (0 μM, as well as in the range of 0.001-10 μM; the final concentration of the solvent dimethyl sulfoxide was 0.5%). The cells were incubated for 4 days in the presence of test substances. Cell proliferation was determined by staining the cells with crystal violet: the cells were fixed by adding 20 μl/measuring point of an 11% glutaric aldehyde solution for 15 minutes at room temperature. After three washing cycles of the fixed cells with water, the plates were dried at room temperature. The cells were stained by adding 100 μl/measuring point of a 0.1% crystal violet solution (pH 3.0). After three washing cycles of the stained cells with water, the plates were dried at room temperature. The dye was dissolved by adding 100 μl/measuring point of a 10% acetic acid solution. The extinction was determined by photometry at a wavelength of 595 nm. The change of cell number, in percent, was calculated by normalization of the measured values to the extinction values of the zero-point plate (=0%) and the extinction of the untreated (0 μm) cells (=100%). The IC50 values (inhibitory concentration at 50% of maximal effect) were determined by means of a 4 parameter fit. Non-adherent MOLM-13 human acute myeloid leukemia cells (DSMZ ACC 554) were seeded at a density of 5,000 cells/well in a 96-well multititer plate in 100 μL of growth medium supplemented 10% fetal calf serum. After 24 hours, cell viability of one plate (zero-point plate) was determined with the Cell Titre-Glo Luminescent Cell Viability Assay (Promega), while 50 μL of test compound containing medium was added to the wells of the other plates (final concentrations in the range of 0.001-10 μM and DMSO controls; the final concentration of the solvent dimethyl sulfoxide was 0.5%). Cell viability was assessed after 72-hour exposure with the Cell Titre-Glo Luminescent Cell Viability Assay (Promega).

[2] = test system: NCI-H460, human non-small cell lung carcinoma cells; experiment: Proliferation assay, NCI-H460 (crystal violet); format: cell-based; conditions: NCI-H460, 4 days; read-out: Inhibition of NCI-H460 cell proliferation IC50
Method: as §1

[3] = biological target: T1, CDK9/CycT1 (Homo sapiens, UniProt P50750); experiment: CDK9/CycT1 high ATP kinase assay (TR-FRET, 2 mM ATP); format: biochemical; conditions: Method 1b
T1 construct: Recombinant full-length His-tagged human CDK9 and CycT1; His; purchased Invitrogen PV4131; host or cells: insect cells
T1 sequence (P50750 whole entry): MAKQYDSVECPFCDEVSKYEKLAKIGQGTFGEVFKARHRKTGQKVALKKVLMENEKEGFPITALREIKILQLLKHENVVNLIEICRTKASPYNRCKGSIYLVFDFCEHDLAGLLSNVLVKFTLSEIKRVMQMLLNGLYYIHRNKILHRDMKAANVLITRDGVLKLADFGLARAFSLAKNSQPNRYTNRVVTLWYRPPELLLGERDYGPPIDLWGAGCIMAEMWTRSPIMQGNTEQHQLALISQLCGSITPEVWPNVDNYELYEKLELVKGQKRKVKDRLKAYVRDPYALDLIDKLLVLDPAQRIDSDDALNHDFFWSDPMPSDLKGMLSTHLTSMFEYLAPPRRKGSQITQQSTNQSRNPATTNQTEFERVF
T1 sequence (O60563 whole entry partner): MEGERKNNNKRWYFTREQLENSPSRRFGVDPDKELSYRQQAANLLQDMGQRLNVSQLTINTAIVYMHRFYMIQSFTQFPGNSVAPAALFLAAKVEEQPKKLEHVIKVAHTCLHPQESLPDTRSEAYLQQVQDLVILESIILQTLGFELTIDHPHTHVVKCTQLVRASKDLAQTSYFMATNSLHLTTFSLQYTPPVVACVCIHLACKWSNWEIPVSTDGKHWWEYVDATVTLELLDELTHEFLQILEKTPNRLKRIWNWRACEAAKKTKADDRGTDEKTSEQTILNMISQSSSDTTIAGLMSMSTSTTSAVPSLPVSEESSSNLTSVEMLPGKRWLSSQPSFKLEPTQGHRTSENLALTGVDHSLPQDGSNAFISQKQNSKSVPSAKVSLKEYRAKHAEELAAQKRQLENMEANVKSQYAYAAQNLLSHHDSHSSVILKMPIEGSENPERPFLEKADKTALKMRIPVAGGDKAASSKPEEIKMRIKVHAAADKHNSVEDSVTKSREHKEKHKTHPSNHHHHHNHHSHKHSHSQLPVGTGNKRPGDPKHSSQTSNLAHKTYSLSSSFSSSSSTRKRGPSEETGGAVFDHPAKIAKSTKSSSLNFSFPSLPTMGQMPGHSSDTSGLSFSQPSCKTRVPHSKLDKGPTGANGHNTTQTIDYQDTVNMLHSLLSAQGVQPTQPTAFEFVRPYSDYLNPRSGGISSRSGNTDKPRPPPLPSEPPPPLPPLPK
Method: 1b. CDK9/CyeT1 High ATP Kinase Assay
CDK9/CycT1-inhibitory activity of compounds of the present invention at a high ATP concentration after preincubation of enzyme and test compounds was quantified employing the CDK9/CycT1 TR-FRET assay as described in the following paragraphs.
Recombinant full-length His-tagged human CDK9 and CycT1, expressed in insect cells and purified by Ni-NTA affinity chromatography, were purchase from Invitrogen (Cat. No PV4131). As substrate for the kinase reaction biotinylated peptide biotin-Ttds-[…] (C-terminus in amid form) was used which can be purchased e.g. form the company JERINI peptide technologies (Berlin, Germany). For the assay 50 nl of a 100 fold concentrated solution of the test compound in DMSO was pipetted into a black low volume 384 well microtiter plate (Greiner Bio-One, Frickenhausen, Germany), 2 μl of a solution of CDK9/CycT1 in aqueous assay buffer [50 mM Tris/HCl pH 8.0, 10 mM MgCl2, 1.0 mM dithiothreitol, 0.1 mM sodium ortho-vanadate, 0.01% (v/v) Nonidet-P40 (Sigma)] were added and the mixture was incubated for 15 min at 22° C. to allow pre-binding of the test compounds to the enzyme before the start of the kinase reaction. Then the kinase reaction was started by the addition of 3 μl of a solution of adenosine-tri-phosphate (ATP, 3.3 mM=>final conc. in the 5 μl assay volume is 2 mM) and substrate (1.67 μM=>final conc. in the 5 μl assay volume is 1 μM) in assay buffer and the resulting mixture was incubated for a reaction time of 25 min at 22° C.
The resulting mixture was incubated 1 h at 22° C. to allow the formation of complex between the phosphorylated biotinylated peptide and the detection reagents. Subsequently the amount of phosphorylated substrate was evaluated by measurement of the resonance energy transfer from the Eu-chelate to the streptavidine-XL. Therefore, the fluorescence emissions at 620 nm and 665 nm after excitation at 350 nm was measured in a HTRF reader, e.g. a Rubystar (BMG Labtechnologies, Offenburg, Germany) or a Viewlux (Perkin-Elmer). The ratio of the emissions at 665 nm and at 622 nm was taken as the measure for the amount of phosphorylated substrate.

IC50 [1]: 27 nM
IC50 [2]: 30 nM
IC50 [3]: 1 nM
Compound: COc1cc(F)ccc1-c1cc(Nc2cc(CS(C)(=N)=O)cc(C)n2)ncc1F (single isomer, unassigned; (-)) [Example 33, (−)-5-Fluoro-4-(4-fluoro-2-methoxyphenyl)-N-{6-methyl-4-[(S-methylsulfonimidoyl)methyl]pyridin-2-yl}pyridin-2-amine]
